These results are taken from US20220056040A1, “NOVEL 3-(2-BROMO-4-ALKYNYL-6-ALKOXYPHENYL)-3-PYRROLIN-2-ONES AND THEIR USE AS HERBICIDES” (Bayer Aktiengesellschaft, priority 2019, published 2022).

Common to all, as to type: in vivo
Experiment [1] relates to Echinochloa crus-galli. The experiment in a line: Pre-emergence herbicidal effect. As to conditions: 80 g/ha, visual score after 3 weeks vs untreated controls. The source says: (§1) Seeds of monocotyledonous and dicotyledonous weed plants and crop plants are laid out in sandy loam soil in wood-fiber pots and covered with soil. The compounds of the invention, formulated in the form of wettable powders (WP) or as emulsion concentrates (EC), are then applied to the surface of the covering soil as aqueous suspension or emulsion at a water application rate equating to 600 to 800 L/ha with addition of 0.2% wetting agent. After the treatment, the pots are placed in a greenhouse and kept under good growth conditions for the trial plants. The damage to the test plants is scored visually after a test period of 3 weeks by comparison with untreated controls (herbicidal activity in percent (%): 100% activity=the plants have died, 0% activity=like control plants).

Experiment [2] deals with Lolium rigidum. Description: Pre-emergence herbicidal effect. The settings on record: 80 g/ha, visual score after 3 weeks vs untreated controls.
Description: as §1

The subject of experiment [3] is Digitaria sanguinalis. The experiment in a line: Pre-emergence herbicidal effect. As to conditions: 80 g/ha, visual score after 3 weeks vs untreated controls.
Description: as §1

In the next experiment the test system is Avena fatua. Description: Pre-emergence herbicidal effect. The settings on record: 80 g/ha, visual score after 3 weeks vs untreated controls.
Description: as §1

Experiment [4] deals with Setaria viridis. Description: Pre-emergence herbicidal effect. As to conditions: 80 g/ha, visual score after 3 weeks vs untreated controls.
Description: as §1

The subject of experiment [5] is Alopecurus myosuroides. The experiment in a line: Pre-emergence herbicidal effect. As to conditions: 80 g/ha, visual score after 3 weeks vs untreated controls.
Description: as §1

Experiment [6] concerns Echinochloa crus-galli. Description: Post-emergence herbicidal effect. The settings on record: 80 g/ha, post-emergence at one-leaf stage, visual score after about 3 weeks. Here is the method: (§2) Seeds of monocotyledonous and dicotyledonous weed and crop plants are laid out in sandyloam soil in wood-fiber pots, covered with soil and cultivated in a greenhouse under good growth conditions. 2 to 3 weeks after sowing, the test plants are treated at the one-leaf stage. The compounds of the invention, formulated in the form of wettable powders (WP) or as emulsion concentrates (EC), are then sprayed onto the green parts of the plants as aqueous suspension or emulsion at a water application rate equating to 600 to 800 l/ha with addition of 0.2% wetting agent. After the test plants have been left to stand in the greenhouse under optimal growth conditions for about 3 weeks, the action of the preparations is assessed visually in comparison to untreated controls (herbicidal action in percent (%): 100% activity=the plants have died, 0% activity=like control plants).

Experiment [7] relates to Lolium rigidum. Description: Post-emergence herbicidal effect. As to conditions: 80 g/ha, post-emergence at one-leaf stage, visual score after about 3 weeks. On the procedure:
as §2

Another experiment deals with Hordeum murinum. The experiment in a line: Post-emergence herbicidal effect. The settings on record: 80 g/ha, post-emergence at one-leaf stage, visual score after about 3 weeks. Here is the method:
as §2

The subject of experiment [8] is Digitaria sanguinalis. The experiment in a line: Post-emergence herbicidal effect. The settings on record: 80 g/ha, post-emergence at one-leaf stage, visual score after about 3 weeks. Here is the method: as §2
Experiment [9] relates to Setaria viridis. Description: Post-emergence herbicidal effect. The settings on record: 80 g/ha, post-emergence at one-leaf stage, visual score after about 3 weeks. On the procedure: as §2
Experiment [10] has as its system Alopecurus myosuroides. Description: Post-emergence herbicidal effect. The settings on record: 80 g/ha, post-emergence at one-leaf stage, visual score after about 3 weeks. On the procedure: as §2

With `C=CCOC1CCC2(CC1)NC(=O)C(c1c(Br)cc(C#CC)cc1OC)=C2O` (stereo not drawn) [Example 1.3.01], the “Pre-emergence action ECHCG (herbicidal activity in percent)” value in the experiment on Echinochloa crus-galli [1] worked out at 90%. The “Pre-emergence action LOLRI (herbicidal activity in percent)” value in the experiment with Lolium rigidum [2] was 100%. Besides, in the experiment with Digitaria sanguinalis [3], the “Pre-emergence action DIGSA (herbicidal activity in percent)” value came out at 100%. For the same compound, in the experiment with Avena fatua, the “Pre-emergence action AVEFA (herbicidal activity in percent)” value was 100%. In addition, in the experiment on Setaria viridis [4], the “Pre-emergence action SETVI (herbicidal activity in percent)” value was 100%. The “Pre-emergence action ALOMY (herbicidal activity in percent)” value in the experiment with Alopecurus myosuroides [5] is on record as 100%. Also, the “Post-emergence action against ECHCG (herbicidal action in percent)” value in the experiment with Echinochloa crus-galli [6] is on record as 100%. Further, the “Post-emergence action against LOLRI (herbicidal action in percent)” value with Lolium rigidum [7] was 100%. Further, the “Post-emergence action against HORMU (herbicidal action in percent)” value with Hordeum murinum is reported as 100%. Further, the “Post-emergence action against DIGSA (herbicidal action in percent)” value with Digitaria sanguinalis [8] came out at 100%. Moreover, the “Post-emergence action against SETVI (herbicidal action in percent)” value in the experiment on Setaria viridis [9] stood at 100%. Further, the “Post-emergence action against ALOMY (herbicidal action in percent)” value in the experiment with Alopecurus myosuroides [10] is 100%.
For the compound `C=CCOC1CCC2(CC1)NC(=O)C(c1c(Br)cc(C#CC)cc1OC)=C2OC(=O)C(C)C` (stereo not drawn) [Example 1.3.04], the “Pre-emergence action ECHCG (herbicidal activity in percent)” value in the experiment on Echinochloa crus-galli [1] is given as 100%. The “Pre-emergence action LOLRI (herbicidal activity in percent)” value with Lolium rigidum [2] is listed as 100%. For the same compound, the “Pre-emergence action DIGSA (herbicidal activity in percent)” value in the experiment on Digitaria sanguinalis [3] is 100%. Besides, the “Pre-emergence action AVEFA (herbicidal activity in percent)” value with Avena fatua is listed as 90%. Besides, the “Pre-emergence action SETVI (herbicidal activity in percent)” value in the experiment on Setaria viridis [4] was determined as 100%. Besides, the “Pre-emergence action ALOMY (herbicidal activity in percent)” value in the experiment on Alopecurus myosuroides [5] was found to be 90%. Further, the “Post-emergence action against ECHCG (herbicidal action in percent)” value in the experiment on Echinochloa crus-galli [6] was 100%. Further, the “Post-emergence action against LOLRI (herbicidal action in percent)” value with Lolium rigidum [7] is recorded as 100%. For the same compound, the “Post-emergence action against HORMU (herbicidal action in percent)” value in the experiment with Hordeum murinum amounted to 100%. The “Post-emergence action against DIGSA (herbicidal action in percent)” value in the experiment on Digitaria sanguinalis [8] is 100%. Also, the “Post-emergence action against SETVI (herbicidal action in percent)” value with Setaria viridis [9] worked out at 100%. The “Post-emergence action against ALOMY (herbicidal action in percent)” value in the experiment on Alopecurus myosuroides [10] is given as 90%.
In the case of `CC#Cc1cc(Br)c(C2=C(O)C3(CCC4(CC3)OCCO4)NC2=O)c(OC)c1` [Example 1.2.03], the “Pre-emergence action ECHCG (herbicidal activity in percent)” value with Echinochloa crus-galli [1] amounted to 100%. The “Pre-emergence action LOLRI (herbicidal activity in percent)” value in the experiment on Lolium rigidum [2] is reported as 100%. Also, in the experiment on Digitaria sanguinalis [3], the “Pre-emergence action DIGSA (herbicidal activity in percent)” value stood at 100%. Further, in the experiment with Avena fatua, the “Pre-emergence action AVEFA (herbicidal activity in percent)” value stood at 100%. The “Pre-emergence action SETVI (herbicidal activity in percent)” value in the experiment with Setaria viridis [4] was 100%. In the experiment with Alopecurus myosuroides [5], the “Pre-emergence action ALOMY (herbicidal activity in percent)” value was 100%. In addition, the “Post-emergence action against ECHCG (herbicidal action in percent)” value with Echinochloa crus-galli [6] is 100%. For the same compound, the “Post-emergence action against LOLRI (herbicidal action in percent)” value in the experiment with Lolium rigidum [7] stood at 100%. The “Post-emergence action against HORMU (herbicidal action in percent)” value in the experiment on Hordeum murinum is 100%. Further, in the experiment with Digitaria sanguinalis [8], the “Post-emergence action against DIGSA (herbicidal action in percent)” value is on record as 100%. Moreover, the “Post-emergence action against SETVI (herbicidal action in percent)” value in the experiment with Setaria viridis [9] is reported as 100%. For the same compound, the “Post-emergence action against ALOMY (herbicidal action in percent)” value in the experiment with Alopecurus myosuroides [10] worked out at 90%.
